According to US9771370B2, “Compounds for the inhibition of indoleamine-2,3-dioxygenase” (Merck Patent GmbH, priority 2014, dated 2017):

Molecular target: Recombinant human IDO (Homo sapiens, UniProt P14902)
Experiment: Bridge-IT tryptophan fluorescence assay of human IDO-1 inhibition
Format: biochemical
Details: recombinant human IDO 7.5 nM, L-tryptophan
Protocol: Measurement of human IDO-1 inhibition is performed in 384 well format using the Bridge-IT® tryptophan Fluorescence Assay (Mediomics, LLC, St. Louis, Mo., U.S.A.).
The reaction is initiated by the addition of L-Tryptophan (Sigma) at a final concentration of 100 μM in assay buffer. After 90 minutes of incubation at 37° C., the reaction is stopped by transferring 1 μl of the reaction mixture to 9 μl of Bridge-IT assay solution A. After 30 min of incubation at 30° C., the fluorescence intensity was measured at λex=485 nm and λem=665 nm using Perkin Elmer Envision® Multilabel Reader.
Measurement of human IDO-1 inhibition was performed in 384-well format using the BRIDGE-IT® tryptophan Fluorescence Assay (Mediomics, LLC, St. Louis, Mo., U.S.A.). […] After 30 minutes of pre-incubation at 25° C., the reaction was initiated by the addition of L-Tryptophan (Sigma) at a final concentration of 50 μM in assay buffer. After 60 minutes of incubation at 25° C., the reaction is stopped by transferring 1 μl of the reaction mixture to 9 μl of Bridge-IT assay solution A. After 30 min of incubation at 30° C., the fluorescence intensity was measured at λex=485 nm and λem=665 nm using Perkin Elmer ENVISION® Multilabel Reader.

Sequence of Recombinant human IDO (P14902 whole entry): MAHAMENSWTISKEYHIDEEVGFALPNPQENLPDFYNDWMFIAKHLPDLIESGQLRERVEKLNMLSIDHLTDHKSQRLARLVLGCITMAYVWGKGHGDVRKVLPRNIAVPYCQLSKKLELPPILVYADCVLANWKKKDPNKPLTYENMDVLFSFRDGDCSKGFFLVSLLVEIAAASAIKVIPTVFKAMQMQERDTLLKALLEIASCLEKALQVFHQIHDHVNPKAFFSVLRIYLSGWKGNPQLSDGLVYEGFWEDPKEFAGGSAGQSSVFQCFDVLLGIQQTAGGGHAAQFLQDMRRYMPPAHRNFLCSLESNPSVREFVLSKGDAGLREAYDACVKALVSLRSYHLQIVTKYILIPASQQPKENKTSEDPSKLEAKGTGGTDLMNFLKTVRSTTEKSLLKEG

FC1(CCC2c3ccccc3-c3cncn32)CCCCC1 (single isomer, unassigned) [Compound 1b, 5-(2-(1-fluorocyclohexyl)ethyl)-5H-imidazo[5,1-a]isoindole]
IC50: 100 to 1000 nM

OC(CC1c2ncccc2-c2cncn21)C1CCCCC1 (single isomer, unassigned) [Compound 5a, 1-cyclohexyl-2-[4,6,9-triazatricyclo[6.4.0.0^[2,6]]dodeca-1(8),2,4,9,11-pentaen-7-yl]ethan-1-ol]
IC50: 100 to 1000 nM

OC(CC1c2ncccc2-c2cncn21)C1CCCCC1 (single isomer, unassigned) [Compound 5b, 1-cyclohexyl-2-[4,6,9-triazatricyclo[6.4.0.0^[2,6]]dodeca-1(8),2,4,9,11-pentaen-7-yl]ethan-1-ol]
IC50: > 1000 nM

OC1CCC(F)(CCC2c3ncccc3-c3cncn32)CC1 (single isomer, unassigned) [Compound 8a, 4-fluoro-4-(2-{4,6,9-triazatricyclo[6.4.0.0^[2,6]]dodeca-1(8),2,4,9,11-pentaen-7-yl}ethyl)cyclohexan-1-ol]
IC50: 100 to 1000 nM

OC1CCC(F)(CCC2c3ncccc3-c3cncn32)CC1 (single isomer, unassigned) [Compound 8b, 4-fluoro-4-(2-{4,6,9-triazatricyclo[6.4.0.0^[2,6]]dodeca-1(8),2,4,9,11-pentaen-7-yl}ethyl)cyclohexan-1-ol]
IC50: > 1000 nM

FC1(CCC2c3cnccc3-c3cncn32)CCCCC1 (single isomer, unassigned) [Compound 10a, 7-[2-(1-fluorocyclohexyl)ethyl]-4,6,10-triazatricyclo[6.4.0.0^[2,6]]dodeca-1(8),2,4,9,11-pentaene]
IC50: > 1000 nM

FC1(CCC2c3cnccc3-c3cncn32)CCCCC1 (single isomer, unassigned) [Compound 10b, 7-[2-(1-fluorocyclohexyl)ethyl]-4,6,10-triazatricyclo[6.4.0.0^[2,6]]dodeca-1(8),2,4,9,11-pentaene]
IC50: > 1000 nM

OC1CCC(F)(CCC2c3ccccc3-c3cncn32)CC1 (single isomer, unassigned) [Compound 13a, 4-(2-(5H-imidazo[5,1-a]isoindol-5-yl)ethyl)-4-fluorocyclohexanol]
IC50: > 1000 nM

OC1CCC(F)(CCC2c3ccccc3-c3cncn32)CC1 (single isomer, unassigned) [Compound 13b, 4-(2-(5H-imidazo[5,1-a]isoindol-5-yl)ethyl)-4-fluorocyclohexanol]
IC50: < 100 nM

COc1cc2c(cn1)-c1cncn1C2CCC1(F)CCCCC1 (single isomer, unassigned) [Compound 15a, 7-[2-(1-fluorocyclohexyl)ethyl]-10-methoxy-4,6,11-triazatricyclo[6.4.0.0^[2,6]]dodeca-1(8),2,4,9,11-pentaene]
IC50: > 1000 nM

COc1cc2c(cn1)-c1cncn1C2CCC1(F)CCCCC1 (single isomer, unassigned) [Compound 15b, 7-[2-(1-fluorocyclohexyl)ethyl]-10-methoxy-4,6,11-triazatricyclo[6.4.0.0^[2,6]]dodeca-1(8),2,4,9,11-pentaene]
IC50: > 1000 nM

OC1CCC(F)(CCC2c3c(F)cccc3-c3cncn32)CC1 (single isomer, unassigned) [Compound 16a, 4-fluoro-4-(2-(6-fluoro-5H-imidazo[5,1-a]isoindol-5-yl)ethyl)cyclohexanol]
IC50: < 100 nM

OC1CCC(F)(CCC2c3c(F)cccc3-c3cncn32)CC1 (single isomer, unassigned) [Compound 16b, 4-fluoro-4-(2-(6-fluoro-5H-imidazo[5,1-a]isoindol-5-yl)ethyl)cyclohexanol]
IC50: 100 to 1000 nM

FC1(CCC2c3ncccc3-c3cncn32)CCCCC1 (single isomer, unassigned) [Compound 18a, 7-[2-(1-fluorocyclohexyl)ethyl]-4,6,9-triazatricyclo[6.4.0.0^[2,6]]dodeca-1(8),2,4,9,11-pentaene]
IC50: 100 to 1000 nM

FC1(CCC2c3ncccc3-c3cncn32)CCCCC1 (single isomer, unassigned) [Compound 18b, 7-[2-(1-fluorocyclohexyl)ethyl]-4,6,9-triazatricyclo[6.4.0.0^[2,6]]dodeca-1(8),2,4,9,11-pentaene]
IC50: > 1000 nM

Fc1cccc2c1C(CCC1(F)CCCCC1)n1cncc1-2 (single isomer, unassigned) [Compound 19a, 6-fluoro-5-(2-(1-fluorocyclohexyl)ethyl)-5H-imidazo[5,1-a]isoindole]
IC50: > 1000 nM

Fc1cccc2c1C(CCC1(F)CCCCC1)n1cncc1-2 (single isomer, unassigned) [Compound 19b, 6-fluoro-5-(2-(1-fluorocyclohexyl)ethyl)-5H-imidazo[5,1-a]isoindole]
IC50: < 100 nM

OC(CC1c2ncccc2-c2cncn21)C1CCC(F)(F)CC1 (single isomer, unassigned) [Compound 22a, 1-(4,4-difluorocyclohexyl)-2-[4,6,9-triazatricyclo[6.4.0.0^[2,6]]dodeca-1(8),2,4,9,11-pentaen-7-yl]ethan-1-ol]
IC50: 100 to 1000 nM

OC(CC1c2ncccc2-c2cncn21)C1CCC(F)(F)CC1 (single isomer, unassigned) [Compound 22b, 1-(4,4-difluorocyclohexyl)-2-[4,6,9-triazatricyclo[6.4.0.0^[2,6]]dodeca-1(8),2,4,9,11-pentaen-7-yl]ethan-1-ol]
IC50: > 1000 nM

OC(CC1c2ncccc2-c2cncn21)C1CCC(F)(F)CC1 (single isomer, unassigned) [Compound 22c, 1-(4,4-difluorocyclohexyl)-2-[4,6,9-triazatricyclo[6.4.0.0^[2,6]]dodeca-1(8),2,4,9,11-pentaen-7-yl]ethan-1-ol]
IC50: > 1000 nM

OC(CC1c2ncccc2-c2cncn21)C1CCC(F)(F)CC1 (single isomer, unassigned) [Compound 22d, 1-(4,4-difluorocyclohexyl)-2-[4,6,9-triazatricyclo[6.4.0.0^[2,6]]dodeca-1(8),2,4,9,11-pentaen-7-yl]ethan-1-ol]
IC50: > 1000 nM

CC1(C)CCC(F)(CCC2c3c(F)cccc3-c3cncn32)CC1 (single isomer, unassigned) [Compound 23a, 6-fluoro-5-(2-(1-fluoro-4,4-dimethylcyclohexyl)ethyl)-5H-imidazo[5,1-a]isoindole]
IC50: > 1000 nM

OC(CC1c2cc(F)ncc2-c2cncn21)C1CCCCC1 (single isomer, unassigned) [Compound 24a, 1-cyclohexyl-2-[10-fluoro-4,6,11-triazatricyclo[6.4.0.0^[2,6]]dodeca-1(8),2,4,9,11-pentaen-7-yl]ethan-1-ol]
IC50: > 1000 nM

OC(CC1c2cc(F)ncc2-c2cncn21)C1CCCCC1 (single isomer, unassigned) [Compound 24b, 1-cyclohexyl-2-[10-fluoro-4,6,11-triazatricyclo[6.4.0.0^[2,6]]dodeca-1(8),2,4,9,11-pentaen-7-yl]ethan-1-ol]
IC50: > 1000 nM

OC(CC1c2cc(F)ncc2-c2cncn21)C1CCCCC1 (single isomer, unassigned) [Compound 24c, 1-cyclohexyl-2-[10-fluoro-4,6,11-triazatricyclo[6.4.0.0^[2,6]]dodeca-1(8),2,4,9,11-pentaen-7-yl]ethan-1-ol]
IC50: < 100 nM

OC(CC1c2cc(F)ncc2-c2cncn21)C1CCCCC1 (single isomer, unassigned) [Compound 24d, 1-cyclohexyl-2-[10-fluoro-4,6,11-triazatricyclo[6.4.0.0^[2,6]]dodeca-1(8),2,4,9,11-pentaen-7-yl]ethan-1-ol]
IC50: < 100 nM
